Experiment [1] can be described thus: Hydroxyl radical antioxidant capacity (HORAC) assay. Particulars: vs 12.5 μM gallic acid (=1), 60 min. The experiment is classed as biochemical. How it is done: In this assay, hydroxyl radicals generated by a Co(II)-mediated Fenton-like reaction oxidize fluorescein causing loss of fluorescence (Ou et al., J Argricultural Food Chemistry 50:2772-2777, 2002). The presence of an anti-oxidant reduces the loss of fluorescence and this can be monitored every 5 min over a period of 60 min with a Spectra Max Gemini XS plate reader (Molecular Devices, Sunnyvale, Calif., USA) and the software SoftMax Pro version 5. For monitoring fluorescence, we used an excitation wavelength of λ=485 nm and an emission wavelength of λ=520 nm.
The biochemical cell free hydroxyl radical antioxidant capacity (HORAC) assay investigates the prevention of hydroxyl radical mediated oxidation of to fluorescein in comparison to the strong anti-oxidant gallic acid. The generation of hydroxyl radicals by a cobalt-driven Fenton-like reaction oxidizes fluorescein with progressive loss of fluorescence. The presence of an anti-oxidant reduces the loss of fluorescence over time.
We compared the area under the curve of test compounds to that elicited by gallic acid to obtain the gallic acid equivalent (GAE).

The test system of the next experiment is human neurons. Kind of experiment: Mitochondrial damage to neurons induced by rotenone. The experiment is classed as cell-based. The following applies: rotenone 10 μM, drug 10 μM. How it is done: Human neurons were isolated from brain tissues of therapeutically aborted 15-20 week old fetuses, in accordance with ethics approval of the University of Calgary ethics committee, after written informed consent of the pregnant donors. Neurons were isolated as previously described (Vecil et al., 2000) brain specimens were washed in phosphate buffered saline (PBS) to remove blood, followed by removal of meninges. […] Thereafter, the digestion was stopped by addition of 4 ml fetal calf serum (FCS). The solution was filtered through a 132 μm filter and centrifuged (three times, 1,200 rpm, 10 min). Cells were cultured in feeding medium of minimal essential medium (MEM) supplemented with 10% fetal bovine serum (FBS), 1 μM sodium pyruvate, 10 μM glutamine, 1× non-essential amino acids, 0.1% dextrose and 1% penicillin/streptomycin (all culture supplements from Invitrogen, Burlington, Canada). […] For experiments, the neuron-enriched cultures were retrypsinized and cells were plated in poly-L-ornithine pre-coated 96-well plates at a density of 100,000 cells/well in 100 μl of the complete medium supplemented with cytosine arabinoside. […] All conditions were performed in quadruplicates. A day later cells were fixed using 4% paraformaldehyde (PFA) and stored in PBS in 4° C.
The iron stock solution was prepared using 27.8 mg iron(II) sulfate heptahydrate (FeSO4) (Sigma-Aldrich, Oakville, Canada), 10 μl of 17.8M sulfuric acid and 10 ml deionized distilled water. After filtering with a 0.2 μm filter, FeSO4 was added to cells in a final concentration of 25-50 μM in a volume of 50 μl medium to the cells. Rotenone was dissolved in dimethyl sulfoxide (DMSO) and used in a final concentration of 10 μM.

Experiment [2] relates to T-cells. Kind of experiment: Proliferation of T-lymphocytes (3H-thymidine) in anti-CD3/anti-CD28 activated splenocytes. Type of experiment: cell-based, mouse. Particulars: Mus musculus, T-cell, 72 h; drug 10 μM, vs activated splenocytes; read-out: mean reduction of 3H-thymidine incorporation (T-cell proliferation). The procedure: A previously published protocol was used for isolating and activating T-cells (Keough et al., Nature Comm 7:11312, 2016). Spleens from female C57B16 mice were harvested and after mechanical dissociation the cell suspension was passed through a 70 μm cell strainer and separated by Ficoll gradient (1800 RPM, 30 min). Splenocytes were plated (2.5×10^5 cells in 100 μl/well) in anti-CD3 antibody coated 96-well plates (1,000 ng m1^−1 plate-bound anti-CD3 and 1,000 ng m1^−1 anti-CD28 suspended in media) to activate T-cells. Directly before plating, wells were treated with respective drugs in a final concentration of 10 μM. Cells were cultured in RPMI 1640 medium, supplemented with 10% FBS, 1 μM sodium pyruvate, 2 mM L-alanyl-L-glutamine, 1% penicillin/streptomycin, 1% HEPES and 0.05 mM 2-mercaptoethanol (all supplements were from Invitrogen). After 48 h, ^3H-thymidine was added in a concentration of 1 μCi per well, and cells were harvested after 24 h on filter mats. Mats were then evaluated for radioactivity (counts per minute) using a liquid scintillation counter.

The subject of experiment [3] is T-cells. Described as above. The experiment is classed as cell-based, mouse. Particulars: concentration response.
The next experiment relates to B-cells. Kind of experiment: Proliferation of activated B-cells (3H-thymidine). The experiment is classed as cell-based, human. Particulars: BCR/anti-CD40L/IL-4 activation. The procedure: Venous blood from healthy volunteers was obtained and peripheral blood mononuclear cells (PBMCs) were isolated by Ficoll gradient centrifugation (1800 RPM, 30 min). From PBMCs, B-cells were isolated by positive selection with CD19 directed microbeads (Stemcell Technologies). Purity was assessed by FACS after staining for CD19 (Stemcell Technologies). Cells were plated in a concentration of 2.5×10^5 cells/well in X-VIVO™ medium (Lonza) supplemented with 1% penicillin/streptomycin and 1% Glutamax and treated with drugs for 1 h. […] Medium as well as respective drugs were re-added followed by application of ^3H-thymidine in a concentration of 1 μCi per well to investigate proliferation.

The next experiment relates to C57BL/6 mice. Kind of experiment: MOG-EAE in C57BL/6 mice, clinical score. The experiment is classed as in vivo, mouse.
For another experiment, the system named is Biozzi ABH mice. Kind of experiment: Chronic EAE in Biozzi ABH mice (spinal cord homogenate). The experiment is classed as in vivo, mouse. Particulars: treatment from onset of clinical signs.
Where [4] appears, read: 25 mg/kg IP from onset of clinical signs (day 13).

Molecules are shown by their SMILES. Structures can show the parent of a compound that is named as a salt.

In the case of `CN(C)CCCN1c2ccccc2CCc2ccc(Cl)cc21` [CLOMIPRAMINE HYDROCHLORIDE], the “mean HORAC-GAE (gallic acid equivalents)” value in experiment [1] is recorded as 2.1. Also, the “neurotoxicity by rotenone (mitochondrial damage)” value in the experiment with human neurons is “trended towards a protective activity”. Further, the inhibition at 10 µM with T-cells [2] turned out to be 68.2%. The “concentration from which T-lymphocyte proliferation is significantly reduced” value in the experiment with T-cells [3] is 5 µM. For the same compound, the “concentration from which proliferation of activated B-cells is reduced” value in the experiment with B-cells was 2 µM. In the experiment on C57BL/6 mice (25 mg/kg IP from day 0 (day of MOG induction)), the “manifestations of clinical signs” value is recorded as “completely suppressed”. Further, the “delay of onset of clinical signs” value in the experiment on C57BL/6 mice (25 mg/kg IP from day 5 after induction) amounted to 2 days. In the experiment with C57BL/6 mice (setting [4]), the “clinical disability of first relapse, days 14-20” value is reported as “attenuated the marked rise in clinical disability” and the “second increase in clinical scores, days 42-50” value was “prevented”. The “severity of the second relapse” value in the experiment on C57BL/6 mice (25 mg/kg IP from remission after first relapse (day 31)) was “did not affect the severity of the second relapse”. Further, the “clinical severity in chronic EAE” value with Biozzi ABH mice is reported as “reduced clinical severity”.

These data come from US20210393645A1, “TREATMENT FOR PROGRESSIVE MULTIPLE SCLEROSIS” (UTI LIMITED PARTNERSHIP, priority 2016, published 2021).
